The compounds below were run against T1, complement C5a receptor 1 (C5aR1) (Homo sapiens, UniProt P21730) (assay: β-arrestin recruitment via C5aR1 activation in live CHO-K1 cells (PathHunter), antagonist mode). Conditions: not given; call rule not given here.
T1 construct: β-galactosidase fragment (PathHunter enzyme complementation); host or cells: CHO-K1 (PathHunter CHO-K1 C5aR1 β-arrestin cell line)
T1 sequence (P21730 1-350): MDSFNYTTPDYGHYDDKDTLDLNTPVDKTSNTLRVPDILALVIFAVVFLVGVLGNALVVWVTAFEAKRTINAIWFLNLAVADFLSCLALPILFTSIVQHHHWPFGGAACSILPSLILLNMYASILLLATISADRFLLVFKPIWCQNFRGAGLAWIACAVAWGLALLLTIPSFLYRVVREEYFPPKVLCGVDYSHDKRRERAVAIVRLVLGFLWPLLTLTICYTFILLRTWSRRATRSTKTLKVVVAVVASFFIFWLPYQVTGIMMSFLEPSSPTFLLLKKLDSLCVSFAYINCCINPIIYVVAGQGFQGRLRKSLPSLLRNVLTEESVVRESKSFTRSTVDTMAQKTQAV
Type: cell-based
Description: (§1) Exemplary compounds were evaluated for classical GPCR β-arrestin recruitment via complement C5a receptor 1 (C5aR1) activation in live CHO-K1 cells. This cell line expresses two fragments of the […] protein coupled to β-arrestin and C5aR1. Complementation of the two fragments allows for the assessment of both C5aR1 agonism and antagonism. Recombinant hC5a (EC90) was used as the competing natural agonist against disclosed compounds (more information on the expanded protocol and cell line can be found on the manufacturer's website: PathHunter® CHO-K1 C5aR1 β-arrestin cell line, DiscoverX, Catalog No. 93-0557C2). […] IC50 ranges: A: IC50≤500 nM; B: 500 nM<IC50≤5 uM; C: 5 uM<IC50≤100 uM; D: IC50>100 uM.

Row | IC50 [nM] | SMILES
1 | < 500 | Cc1cnc2cc(C3CCN(c4c(C)cccc4F)CC3)c(=O)n(Cc3cccnc3OC(F)(F)F)c2n1 [compound 100, 7-(1-(2-Fluoro-6-methylphenyl)piperidin-4-yl)-3-methyl-5-((2-(trifluoromethoxy)pyridin-3-yl)methyl)pyrido[2,3-b]pyrazin-6(5H)-one]
2 | 500 to 5000 | Cc1ccccc1N1CCC(c2cc3nccnc3n(Cc3nccnc3C)c2=O)CC1 [compound 109, 5-((3-Methylpyrazin-2-yl)methyl)-7-(1-(o-tolyl)piperidin-4-yl)pyrido[2,3-b]pyrazin-6(5H)-one]

Same assay, conditions: antagonist mode; recombinant hC5a (EC90) as competing natural agonist; live CHO-K1 cells; read-out: [Antagonist] B-arrestin2 recruitment: Average IC50

Row | IC50 [nM] | SMILES
3 | < 500 | Cc1ncc2cc(N3CCN(c4c(C)cccc4F)CC3)c(=O)n(Cc3ncccc3OC(F)(F)F)c2n1 [compound 110, 6-(4-(2-Fluoro-6-methylphenyl)piperazin-1-yl)-2-methyl-8-((3-(trifluoromethoxy)pyridin-2-yl)methyl)pyrido[2,3-d]pyrimidin-7(8H)-one]
4 | 5000 to 100000 | Cc1nccnc1Cn1c(=O)c(C2CCN(c3ccccc3OC(F)F)CC2)cc2nccnc21 [compound 111, 7-(1-(2-(Difluoromethoxy)phenyl)piperidin-4-yl)-5-((3-methylpyrazin-2-yl)methyl)pyrido[2,3-b]pyrazin-6(5H)-one]
5 | 5000 to 100000 | COc1cnc2cc(C3CCN(c4c(C)cccc4F)CC3)c(=O)n(Cc3nccnc3C)c2n1 [compound 112, 7-(1-(2-Fluoro-6-methylphenyl)piperidin-4-yl)-3-methoxy-5-((3-methylpyrazin-2-yl)methyl)pyrido[2,3-b]pyrazin-6(5H)-one]
6 | > 100000 | Cc1cnc2cc(C3CCN(c4ccnnc4C)CC3)c(=O)n(Cc3ncccc3C(F)(F)F)c2n1 [compound 113, 3-Methyl-7-(1-(3-methylpyridazin-4-yl)piperidin-4-yl)-5-((3-(trifluoromethyl)pyridin-2-yl)methyl)pyrido[2,3-b]pyrazin-6(5H)-one]
7 | 5000 to 100000 | Cc1cnc2cc(C3CCN(c4cncnc4C)CC3)c(=O)n(Cc3ncccc3C(F)(F)F)c2n1 [compound 114, 3-Methyl-7-(1-(4-methylpyrimidin-5-yl)piperidin-4-yl)-5-((3-(trifluoromethyl)pyridin-2-yl)methyl)pyrido[2,3-b]pyrazin-6(5H)-one]
8 | 500 to 5000 | Cc1cnc2cc(C3CCN(c4nnccc4C)CC3)c(=O)n(Cc3ncccc3C(F)(F)F)c2n1 [compound 115, 3-Methyl-7-(1-(4-methylpyridazin-3-yl)piperidin-4-yl)-5-((3-(trifluoromethyl)pyridin-2-yl)methyl)pyrido[2,3-b]pyrazin-6(5H)-one]
9 | 500 to 5000 | Cc1cccc(F)c1N1CCC(c2cc3nccnc3n(Cc3cncnc3C(F)(F)F)c2=O)CC1 [compound 116, 7-(1-(2-Fluoro-6-methylphenyl)piperidin-4-yl)-5-((4-(trifluoromethyl)pyrimidin-5-yl)methyl)pyrido[2,3-b]pyrazin-6(5H)-one]
10 | 500 to 5000 | Cc1ncc2cc(N3CCN(c4c(C)cccc4F)CC3)c(=O)n(Cc3ncccc3OC(F)F)c2n1 [compound 117, 8-((3-(Difluoromethoxy)pyridin-2-yl)methyl)-6-(4-(2-fluoro-6-methylphenyl)piperazin-1-yl)-2-methylpyrido[2,3-d]pyrimidin-7(8H)-one]
11 | 500 to 5000 | Cc1ncc2cc(N3CCN(c4c(C)cccc4F)CC3)c(=O)n(Cc3ncccc3C(F)(F)F)c2n1 [compound 119, 6-(4-(2-Fluoro-6-methylphenyl)piperazin-1-yl)-2-methyl-8-((3-(trifluoromethyl)pyridin-2-yl)methyl)pyrido[2,3-d]pyrimidin-7(8H)-one]
12 | < 500 | Cc1cccc(F)c1N1CCC(c2cc3nccnc3n(Cc3nccnc3C(F)F)c2=O)CC1 [compound 122, 5-((3-(Difluoromethyl)pyrazin-2-yl)methyl)-7-(1-(2-fluoro-6-methylphenyl)piperidin-4-yl)pyrido[2,3-b]pyrazin-6(5H)-one]

The next lines start with the compound.

Row | SMILES | IC50 [nM]
13 | Cc1cnc2cc(N3CCC(c4c(C)cccc4F)CC3)c(=O)n(Cc3nccnc3C(F)(F)F)c2n1 [compound 95, 7-(4-(2-Fluoro-6-methylphenyl)piperidin-1-yl)-3-methyl-5-((3-(trifluoromethyl)pyrazin-2-yl)methyl)pyrido[2,3-b]pyrazin-6(5H)-one] | 500 to 5000
14 | Cc1cccc(F)c1N1CCN(c2cc3nccnc3n(Cc3ncccc3C(F)(F)F)c2=O)CC1 [compound 96, 7-(4-(2-Fluoro-6-methylphenyl)piperazin-1-yl)-5-((3-(trifluoromethyl)pyridin-2-yl)methyl)pyrido[2,3-b]pyrazin-6(5H)-one] | < 500
15 | Cc1cccc(F)c1N1CCN(c2c(C)c3nccnc3n(Cc3nccnc3C(F)(F)F)c2=O)CC1 [compound 97, 7-(4-(2-Fluoro-6-methylphenyl)piperazin-1-yl)-8-methyl-5-((3-(trifluoromethyl)pyrazin-2-yl)methyl)pyrido[2,3-b]pyrazin-6(5H)-one] | 500 to 5000
16 | Cc1cccc(F)c1N1CCC(c2cc3nccnc3n(Cc3ncccc3OC(F)F)c2=O)CC1 [compound 98, 5-((3-(Difluoromethoxy)pyridin-2-yl)methyl)-7-(1-(2-fluoro-6-methylphenyl)piperidin-4-yl)pyrido[2,3-b]pyrazin-6(5H)-one] | < 500
17 | Cc1cnc2cc(N3CCC(c4c(C)cccc4F)CC3)c(=O)n(Cc3ncccc3C(F)(F)F)c2n1 [compound 101, 7-(4-(2-Fluoro-6-methylphenyl)piperidin-1-yl)-3-methyl-5-((3-(trifluoromethyl)pyridin-2-yl)methyl)pyrido[2,3-b]pyrazin-6(5H)-one] | 500 to 5000
18 | Cc1ncc2cc(C3CCN(c4c(C)cccc4F)CC3)c(=O)n(Cc3ncccc3OC(F)(F)F)c2n1 [compound 102, 6-(1-(2-Fluoro-6-methylphenyl)piperidin-4-yl)-2-methyl-8-((3-(trifluoromethoxy)pyridin-2-yl)methyl)pyrido[2,3-d]pyrimidin-7(8H)-one] | < 500
19 | Cc1cnc2c(C)c(C3CCN(c4c(C)cccc4F)CC3)c(=O)n(Cc3nccnc3C)c2n1 [compound 103, 7-(1-(2-Fluoro-6-methylphenyl)piperidin-4-yl)-3,8-dimethyl-5-((3-methylpyrazin-2-yl)methyl)pyrido[2,3-b]pyrazin-6(5H)-one] | 500 to 5000
20 | Cc1cnc2cc(N3CCN(c4c(C)cccc4F)CC3)c(=O)n(Cc3nccnc3C)c2n1 [compound 104, 7-(4-(2-Fluoro-6-methylphenyl)piperazin-1-yl)-3-methyl-5-((3-methylpyrazin-2-yl)methyl)pyrido[2,3-b]pyrazin-6(5H)-one] | 500 to 5000
21 | Cc1ncc2cc(C3CCN(c4c(C)cccc4F)CC3)c(=O)n(Cc3ncccc3OC(F)F)c2n1 [compound 105, 8-((3-(Difluoromethoxy)pyridin-2-yl)methyl)-6-(1-(2-fluoro-6-methylphenyl)piperidin-4-yl)-2-methylpyrido[2,3-d]pyrimidin-7(8H)-one] | < 500
22 | Cc1cnc2cc(C3CCN(c4c(C)cccc4F)CC3)c(=O)n(Cc3nccnc3C)c2n1 [compound 106, 7-(1-(2-Fluoro-6-methylphenyl)piperidin-4-yl)-3-methyl-5-((3-methylpyrazin-2-yl)methyl)pyrido[2,3-b]pyrazin-6(5H)-one] | < 500
23 | Cc1ncc2cc(C3CCN(c4c(C)cccc4F)CC3)c(=O)n(Cc3nccnc3C)c2n1 [compound 107, 6-(1-(2-Fluoro-6-methylphenyl)piperidin-4-yl)-2-methyl-8-((3-methylpyrazin-2-yl)methyl)pyrido[2,3-d]pyrimidin-7(8H)-one] | 500 to 5000
24 | Cc1nccnc1Cn1c(=O)c(C2CCN(c3ccccc3OC(F)(F)F)CC2)cc2nccnc21 [compound 108, 5-((3-Methylpyrazin-2-yl)methyl)-7-(1-(2-(trifluoromethoxy)phenyl)piperidin-4-yl)pyrido[2,3-b]pyrazin-6(5H)-one] | 500 to 5000

Each compound was assayed against T1, complement C5a receptor 1 (C5aR1) (assay: β-arrestin recruitment via C5aR1 activation in live CHO-K1 cells (PathHunter), agonist mode). Conditions: not given.
Type: cell-based
Description: as §1

Row | [Agonist] B-arrestin2 recruitment: Average EC50 (nM) | SMILES
25 | Non-Active | Cc1ccc2c(c1)nc(C1CCN(c3c(C)cccc3F)CC1)c(=O)n2Cc1ncccc1C(F)(F)F [142B, 3-(1-(2-Fluoro-6-methylphenyl)piperidin-4-yl)-6-methyl-1-((3-(trifluoromethyl)pyridin-2-yl)methyl)quinoxalin-2(1H)-one]

Same assay, conditions: at 10 μM

Row | [Agonist] B-arrestin2 recruitment: Average EC50 (nM) | SMILES
26 | Non-Active at 10 μM | Cc1cccc(F)c1[C@@H]1CC[C@H](c2cc3nccnc3n(Cc3ncccc3C(F)(F)F)c2=O)C1 [200A, 7-((1S,3R)-3-(2-Fluoro-6-methylphenyl)cyclopentyl)-5-((3-(trifluoromethyl)pyridin-2-yl)methyl)pyrido[2,3-b]pyrazin-6(5H)-one]
27 | Non-Active at 10 μM | Cc1cccc(F)c1[C@H]1CC[C@H](c2cc3nccnc3n(Cc3ncccc3C(F)(F)F)c2=O)C1 [200B, 7-((1S,3S)-3-(2-Fluoro-6-methylphenyl)cyclopentyl)-5-((3-(trifluoromethyl)pyridin-2-yl)methyl)pyrido[2,3-b]pyrazin-6(5H)-one]

— patent US20260317320A1, “C5AR1 ANTAGONISTS AND USES THEREOF” (Vanqua Bio, Inc., priority 2022, published 2026)
